Test results from patent US8623864B2, “Thioridazine and derivatives thereof for reversing anti-microbial drug-resistance” (NOA Sic Aps, priority 2003, dated 2014).
Where two headings read alike, the source gives them in different places.

Assays:
Enterococcus faecalis = assay: Microdilution checkerboard, antibiotic plus resistance modifier; format: cell-based
[1] = test system: human Enterococcus faecalis; assay: as above; format: cell-based; conditions: Enterococcus faecalis, drug alone
a known bacterial strain = assay: MIC of erythromycin and thioridazine, alone and combined; format: cell-based
[2] = test system: Mycobacterium tuberculosis; conditions: Ordway et al. 2003; cited from earlier work
tumour cell lines = conditions: Akiyama et al. 1986; cited from earlier work
[3] = test system: a common bacterial strain; assay: MIC of oxacillin alone and combined with thioridazine; format: cell-based; conditions: read-out: effective MIC
[4] = strain A, each drug in the combination AMP + THIO
[5] = strain A, each drug in the combination VAN + THIO
[6] = strain B, each drug in the combination AMP + THIO
[7] = strain B, each drug in the combination VAN + THIO
[8] = strain C, each drug in the combination AMP + THIO
[9] = strain C, each drug in the combination VAN + THIO
[10] = strain D, each drug in the combination AMP + THIO
[11] = strain D, each drug in the combination VAN + THIO
[12] = strain E, each drug in the combination AMP + THIO
[13] = strain E, each drug in the combination VAN + THIO
[14] = strain A, read-out: MIC of single drug (microdilution checkerboard)
[15] = strain B, read-out: MIC of single drug (microdilution checkerboard)
[16] = strain C, read-out: MIC of single drug (microdilution checkerboard)
[17] = strain D, read-out: MIC of single drug (microdilution checkerboard)
[18] = strain E, read-out: MIC of single drug (microdilution checkerboard)
[19] = strain A, each drug in the combination AMP + PCP
[20] = strain A, each drug in the combination VAN + PCP
[21] = strain B, each drug in the combination AMP + PCP
[22] = strain B, each drug in the combination VAN + PCP
[23] = strain C, each drug in the combination AMP + PCP
[24] = strain C, each drug in the combination VAN + PCP
[25] = strain D, each drug in the combination AMP + PCP
[26] = strain D, each drug in the combination VAN + PCP
[27] = strain E, each drug in the combination AMP + PCP
[28] = strain E, each drug in the combination VAN + PCP

Row | SMILES | Combination of drugs (MIC) (Enterococcus faecalis; [4]) [µg/mL] | Combination of drugs (MIC) (Enterococcus faecalis; [5]) [µg/mL] | Combination of drugs (MIC) (Enterococcus faecalis; [6]) [µg/mL] | Combination of drugs (MIC) (Enterococcus faecalis; [7]) [µg/mL] | Combination of drugs (MIC) (Enterococcus faecalis; [8]) | Combination of drugs (MIC) (Enterococcus faecalis; [9]) [µg/mL] | Combination of drugs (MIC) (Enterococcus faecalis; [10]) [µg/mL] | Combination of drugs (MIC) (Enterococcus faecalis; [11]) [µg/mL] | Combination of drugs (MIC) (Enterococcus faecalis; [12]) [µg/mL] | Combination of drugs (MIC) (Enterococcus faecalis; [13]) [µg/mL] | MIC [1, 14] [µg/mL] | MIC [1, 15] [µg/mL] | MIC [1, 16] [µg/mL] | MIC [1, 17] [µg/mL] | MIC [1, 18] [µg/mL] | MIC (a known bacterial strain) [µg/mL] | Combination of drugs (MIC) (Enterococcus faecalis; [19]) [µg/mL] | Combination of drugs (MIC) (Enterococcus faecalis; [20]) [µg/mL] | Combination of drugs (MIC) (Enterococcus faecalis; [21]) [µg/mL] | Combination of drugs (MIC) (Enterococcus faecalis; [22]) [µg/mL] | also measured
1 | CSc1ccc2c(c1)N(CCC1CCCCN1C)c1ccccc1S2 (racemic) [THIO, thioridazine] | 16 | 8 | 8 | 32 | AMP (4) + THIO (4) μg/ml | 4 | 4 | 8 | 8 | 2 | 32 | 32 | 32 | 32 | 32 | 16 | – | – | – | – | Ability to kill bacteria in vitro [2]: kill Mycobacterium tuberculosis in vitro; Reversal of resistance to antineoplastic agents (tumour cell lines): effective in reversing resistance to a variety of antineoplastic agents
2 | CC[C@H]1OC(=O)[C@H](C)[C@@H](O[C@H]2C[C@@](C)(OC)[C@@H](O)[C@H](C)O2)[C@H](C)[C@@H](O[C@@H]2O[C@H](C)C[C@H](N(C)C)[C@H]2O)[C@](C)(O)C[C@@H](C)C(=O)[C@H](C)[C@@H](O)[C@]1(C)O [Erythromycin] | – | – | – | – | – | – | – | – | – | – | – | – | – | – | – | 24 | – | – | – | – | Erythromycin concentration needed in combination (a known bacterial strain; combined with 12 μg/ml of the levorotatory isomer of thioridazine): 1 µg/mL; Erythromycin concentration needed in combination (a known bacterial strain; combined with 12 μg/ml of thioridazine in racemic form): less than 8 μg/ml
3 | CN1CCN(CCCN2c3ccccc3Sc3ccc(Cl)cc32)CC1 [PCP, prochlorperazine] | – | – | – | – | – | – | – | – | – | – | 32 | 64 | 32 | 32 | 32 | – | 0.25 | 16 | 16 | 16 | Combination of drugs (MIC) (Enterococcus faecalis; [23]): 0.5 µg/mL; Combination of drugs (MIC) (Enterococcus faecalis; [24]): 8 µg/mL; Combination of drugs (MIC) (Enterococcus faecalis; [25]): 8 µg/mL; Combination of drugs (MIC) (Enterococcus faecalis; [26]): 8 µg/mL; Combination of drugs (MIC) (Enterococcus faecalis; [27]): 16 µg/mL; Combination of drugs (MIC) (Enterococcus faecalis; [28]): 8 µg/mL
4 | CC1(C)S[C@@H]2[C@H](NC(=O)[C@H](N)c3ccccc3)C(=O)N2[C@H]1C(=O)O [ampicillin] | 1 | – | 0.5 | – | AMP (4) + THIO (4) μg/ml | – | 0.25 | – | 16 | – | 32 | 2 | 16 | 1 | 128 | – | 32 | – | 0.5 | – | Combination of drugs (MIC) (Enterococcus faecalis; [23]): 8 µg/mL; Combination of drugs (MIC) (Enterococcus faecalis; [25]): 0.25 µg/mL; Combination of drugs (MIC) (Enterococcus faecalis; [27]): 64 µg/mL
5 | Cc1onc(-c2ccccc2)c1C(=O)N[C@@H]1C(=O)N2[C@@H]1SC(C)(C)[C@@H]2C(=O)O [oxacillin] | – | – | – | – | – | – | – | – | – | – | – | – | – | – | – | – | – | – | – | – | MIC ([3]; combined with 8 μg/ml of thioridazine): 1 µg/mL; MIC ([3]; oxacillin alone, common bacterial strain): > 256 µg/mL
6 | CN[C@H](CC(C)C)C(=O)N[C@H]1C(=O)N[C@@H](CC(N)=O)C(=O)N[C@H]2C(=O)N[C@H]3C(=O)N[C@H](C(=O)N[C@H](C(=O)O)c4cc(O)cc(O)c4-c4cc3ccc4O)[C@H](O)c3ccc(c(Cl)c3)Oc3cc2cc(c3O[C@@H]2O[C@H](CO)[C@@H](O)[C@H](O)[C@H]2O[C@H]2C[C@](C)(N)[C@H](O)[C@H](C)O2)Oc2ccc(cc2Cl)[C@H]1O [vancomycin] | – | 6 | – | 2 | – | 64 | – | 32 | – | 1 | – | – | – | – | – | – | – | 48 | – | 1 | Combination of drugs (MIC) (Enterococcus faecalis; [24]): 64 µg/mL; Combination of drugs (MIC) (Enterococcus faecalis; [26]): 32 µg/mL; Combination of drugs (MIC) (Enterococcus faecalis; [28]): 0.5 µg/mL; MIC ([1]; read-out: MIC of single drug (microdilution checkerboard), strain A): 192 µg/mL; MIC ([1]; read-out: MIC of single drug (microdilution checkerboard), strain B): 4 µg/mL; MIC ([1]; read-out: MIC of single drug (microdilution checkerboard), strain C): 128 µg/mL; MIC ([1]; read-out: MIC of single drug (microdilution checkerboard), strain D): 500 µg/mL; MIC ([1]; read-out: MIC of single drug (microdilution checkerboard), strain E): 2 µg/mL
